Test results taken from patent publication US20240318150A1, “METHODS FOR OXYFUNCTIONALIZATION OF VARIOUS SUBSTRATES USING BACTERIAL ENZYMES” (GECCO Biotech B.V., priority 2021, published 2024).

System: T3G1
Assay: Substrate conversion (oxyfunctionalization) by purified enzyme T3G1 with H2O2
Assay type: biochemical, Proteobacteria bacterium
Details: 1 mM substrate, 2 mM H2O2 (1 mM at start, to 2 mM after 90 min), 7 μM enzyme T3G1 (5 + 2 μM)
Description: This prompted us to test the representative enzyme T3G1 against a large panel of various substrates.

Row | Molecule | % conversion
1 | C=C(C)C1CC=C(C)CC1 (single isomer, unassigned; (+)) [(+)-limonene] | 81%
2 | C=CCCCCCCC=C [1,9-decadiene] | 15%
3 | C=CC(=C)C [2-methyl-1,3-butadiene] | trace
4 | C=C(C)CC [2-methyl-1-butene] | trace
5 | CC(=O)CCC1C(C)=CCCC1(C)C (stereo not drawn) [7,8-dihydro-α-ionone] | 50%
6 | C[C@]12CCC(=O)C=C1CCC2=O [(S)-Hajos-Wiechert ketone] | trace
7 | C=CCCCCCCCC [Substrate 1-decene, 1-decene] | 13%
8 | C=CCCCCC [Substrate 1-heptene, 1-heptene] | trace
9 | C=CCCCC [Substrate 1-hexene, 1-hexene] | trace
10 | C=CCCCCCC [Substrate 1-octene, 1-octene] | 65%
11 | CC12CCC(=O)C=C1CCCC2=O (centres unmarked) [Wieland-miescher ketone] | 10%
12 | C/C=C\CCCC [cis-2-heptene] | 81%
13 | C/C=C\CCC [cis-2-hexene] | trace
14 | C1=C\CCCCCC/1 [cis-cyclooctene] | 83%
15 | COc1cc(C)ccc1O [creosol] | trace
16 | C1=CCCCC1 [cyclohexene] | 32%
17 | CCc1ccccc1 [ethylbenzene] | trace
18 | C1=Cc2ccccc2C1 [indene] | 27%
19 | CCCCCCCC/C=C\CCCCCCCC(=O)O [oleic acid] | 19%

Row | Molecule | % conversion
20 | CC(C)NCC(O)COc1cccc2ccccc12 (centres unmarked) [propanolol, reference compound] | 5%
21 | C=Cc1ccccc1 [styrene] | 61%
22 | CSc1ccccc1 [thioanisole] | 40%
23 | C/C=C/CCC [trans-2-hexene] | trace
24 | C/C=C/CCCCC [trans-2-octene] | 99%
25 | CC/C=C/CC [trans-3-hexene] | 40%
26 | CC/C=C/CCCC [trans-3-octene] | 99%
27 | CCC/C=C/CCC [trans-4-octene] | 99%
28 | C(=C\c1ccccc1)/c1ccccc1 [trans-stilbene] | 17%
29 | CC(=O)/C=C/C1=C(C)CCCC1(C)C [trans-β-ionone] | 48%
30 | C=C(C)[C@@H]1CCC2=CCC[C@@H](C)[C@]2(C)C1 [valencene] | 3%
31 | C/C=C\C(=O)C1C(C)=CCCC1(C)C (stereo not drawn) [α-damascone] | 26%
32 | CC1=CCCC(C)(C)C1/C=C/C(C)O (stereo not drawn) [α-ionol] | 61%
33 | CC(=O)/C=C/C1C(C)=CCCC1(C)C (stereo not drawn) [α-ionone] | 61%
34 | CC=Cc1ccccc1 [β-methyl-styrene] | 86%
35 | C/C=C/C(=O)C1C(C)C=CCC1(C)C (centres unmarked) [δ-damascone] | 16%
36 | (−)-carveol | 4%
37 | terpinene | 73%

Same assay, conditions: 1 mM substrate, 2 mM H2O2, 7 μM T3G1

Row | % double epoxide [% double epoxide] | Molecule | % cis (of product, printed beside % conversion) | % ee (printed beside % conversion)
38 |  | C=C(C)C1CC=C(C)CC1 (single isomer, unassigned; (+)) [(+)-limonene] | (97.3% cis) | 
39 | 13 | C=CCCCCCCC=C [1,9-decadiene] |  | 
40 |  | C=Cc1ccccc1 [styrene] |  | (17% ee)
41 |  | CSc1ccccc1 [thioanisole] |  | (74% ee)
